Laboratory results: US20220267341A1, “SOLID FORMS OF TERT-BUTYL (S)-2((2S,3R)-1-AMINO-3-HYDROXY-1-OXOBU TAN-2-YL)-1-OXO-2, 5-DIAZASPIRO [3.4] OCTAN E-5-CARBOXYLATE AND METHODS OF PREPARING THEM” (NAUREX INC., priority 2019, published 2022)

Experiments:
Type in all cases: physicochemical
[1] = DVS water vapor desorption analysis; details: 25° C.
Experimental: DVS: The following method was used for the water vapor desorption analysis using a DVS Advantage (Surface Measurement Systems). • Temperature: 25° C. • RH program: 95, 90, 80, 70, 60, 50, 40, 35, 30, 20, 10, 0%. • Dm/dt (%/min.): 0.0005 • Minimum equilibrium time: 120 minutes • Maximum equilibrium time: 2000 minutes
The solid was also subjected to DVS measurement and lost about 11% water at 0% RH.

[2] = Thermogravimetric analysis (TGA); details: heated from room temperature at 10° C./minute; consistent with a dihydrate
Experimental: TGA: Approximately 5-10 mg sample was heated from room temperature to 250° C. at 10° C./minute.
(§1) In another experiment, about 2 g of crystalline Form I of Compound A from Example 1 was weighed into a 20 mL scintillation vial and 4 mL of Milli-Q water was added into the vial. The resulting suspension was stirred with a spatula and left at room temperature for one day. The residual was then filtered with vacuum and dried in a vacuum oven at room temperature for about 20 hours. XRPD was taken after drying and Form II was confirmed since it was essentially the same as FIG. 3, top panel. […] The dried sample was then dehydrated in a TGA pan at 80° C. (ramp from room temperature to 80° C. at 10° C./min and then isothermal for 2 min).

[3] = DSC thermogram (dehydration event); details: 20 to 180° C. at 10° C./min, pin-hole lid
Experimental: DSC: DSC thermograms were obtained using a TA Instruments DSC Q2000. Approximately 1-2 mg of sample was weighed into a Tzero aluminum pan and hermetically sealed with a Tzero hermetic lid. For crystalline Form II samples, the lid was punched with a pin-hole. • DSC: Sample was scanned from 20 to 180° C. at 10° C./min.
as §1

[4] = Dehydration in a TGA pan at 80° C., form checked by XRPD and DSC; details: ramp to 80° C. at 10° C./min then isothermal for 2 min
Experimental: as §1

[5] = Competitive slurry in mixtures of water and isopropanol; details: 25° C.
Experimental: Competitive slurry in mixtures of water and isopropanol indicates the phase boundary between the crystalline Form I and crystalline Form II is between water activity of 0.66-0.78 at 25° C. At water activity above 0.78, crystalline Form II is the stable form, whereas at water activity below 0.66, crystalline Form I is the stable form

water lost in DVS ([1]; 0% RH) | water loss in DVS at or above 20% RH ([1]; at or above 20% RH) | TGA weight loss [2] | possible dehydration event in DSC [3] | water activity at which the form is the stable form ([5]; dihydrate) | water activity at which the form is the stable form [5] | Compound | solid form after dehydration [4]
about 11% | did not lose water | 9.6% | about 82 °C | above 0.78 | – | C[C@@H](O)[C@@H](C(N)=O)N1C[C@@]2(CCCN2C(=O)OC(C)(C)C)C1=O [crystalline Form II of Compound A, tert-butyl (S)-2-((2S,3R)-1-amino-3-hydroxy-1-oxobutan-2-yl)-1-oxo-2,5-diazaspiro[3.4]octane-5-carboxylate dihydrate] | mostly crystalline Form I with residual amorphous content and very small amount of crystalline Form II
– | – | – | – | – | below 0.66 | C[C@@H](O)[C@@H](C(N)=O)N1C[C@@]2(CCCN2C(=O)OC(C)(C)C)C1=O [crystalline Form I of Compound A, tert-butyl (S)-2-((2S,3R)-1-amino-3-hydroxy-1-oxobutan-2-yl)-1-oxo-2,5-diazaspiro[3.4]octane-5-carboxylate] | –
